We go through 20 compounds from patent publication US10787450B2 (BRISTOL-MYERS SQUIBB COMPANY, priority 2016, dated 2020).

pIC50: −log10 of the molar value.

ROCK2, sequence (O75116 whole entry, species assumed): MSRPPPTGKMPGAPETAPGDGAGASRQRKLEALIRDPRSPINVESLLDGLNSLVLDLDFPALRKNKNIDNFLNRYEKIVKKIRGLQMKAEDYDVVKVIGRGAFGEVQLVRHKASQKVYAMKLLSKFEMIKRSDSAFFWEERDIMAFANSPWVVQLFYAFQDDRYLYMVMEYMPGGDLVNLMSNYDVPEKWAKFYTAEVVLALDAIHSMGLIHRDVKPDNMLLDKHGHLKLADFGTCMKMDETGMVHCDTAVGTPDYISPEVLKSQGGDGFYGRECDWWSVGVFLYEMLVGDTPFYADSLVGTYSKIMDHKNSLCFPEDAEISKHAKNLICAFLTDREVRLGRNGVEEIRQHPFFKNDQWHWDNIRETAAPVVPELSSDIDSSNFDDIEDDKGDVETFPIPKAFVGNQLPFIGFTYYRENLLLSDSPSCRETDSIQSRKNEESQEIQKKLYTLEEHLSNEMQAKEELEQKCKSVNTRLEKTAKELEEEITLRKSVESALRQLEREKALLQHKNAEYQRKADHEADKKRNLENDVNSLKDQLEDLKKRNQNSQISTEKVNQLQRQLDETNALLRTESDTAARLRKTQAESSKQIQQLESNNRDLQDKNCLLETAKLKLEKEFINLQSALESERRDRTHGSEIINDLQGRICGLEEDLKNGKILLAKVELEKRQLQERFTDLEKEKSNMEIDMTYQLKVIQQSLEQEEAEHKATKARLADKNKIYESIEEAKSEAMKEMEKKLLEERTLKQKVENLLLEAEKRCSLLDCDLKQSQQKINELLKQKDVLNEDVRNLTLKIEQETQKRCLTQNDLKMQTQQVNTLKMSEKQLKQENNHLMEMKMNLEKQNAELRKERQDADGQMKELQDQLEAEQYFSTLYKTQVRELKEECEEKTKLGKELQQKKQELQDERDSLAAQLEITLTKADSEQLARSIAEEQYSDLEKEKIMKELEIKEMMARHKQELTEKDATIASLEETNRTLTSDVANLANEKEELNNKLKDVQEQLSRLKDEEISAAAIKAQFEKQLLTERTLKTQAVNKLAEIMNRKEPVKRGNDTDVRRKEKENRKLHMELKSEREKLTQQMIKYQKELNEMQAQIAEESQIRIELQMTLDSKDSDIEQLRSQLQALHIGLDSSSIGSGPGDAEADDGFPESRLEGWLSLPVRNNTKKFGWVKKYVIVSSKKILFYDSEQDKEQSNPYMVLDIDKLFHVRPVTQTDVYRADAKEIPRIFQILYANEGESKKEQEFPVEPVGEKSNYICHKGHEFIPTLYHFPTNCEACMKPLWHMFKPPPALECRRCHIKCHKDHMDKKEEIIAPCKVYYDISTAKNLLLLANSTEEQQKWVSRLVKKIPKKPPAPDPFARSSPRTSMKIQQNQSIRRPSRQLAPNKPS

One experiment concerns the target ROCK2 (Homo sapiens (Human), UniProt O75116). Briefly: ROCK2 kinase inhibition assay (FITC peptide substrate, LABCHIP 3000 Reader). The class given is biochemical. The note with it: 5 μM ATP, 1.5 μM peptide substrate. In outline:
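IC50 derived by curve fitting of dose-response inhibition, read as separation of phosphorylated from unphosphorylated FITC peptide (1.5 μM) after EDTA stop. Buffer: HEPES pH 7.5, MgCl2, Brij-35, DTT; ATP 5 μM; final DMSO <2%; reaction initiated by Rho kinase addition.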
In general, pIC50 refers to the negative decadic logarithm of the IC50, by convention in mol/L. `COc1cccc(NC2C(=O)N(c3ncc(-c4cn[nH]c4)c(OC)n3)CC23CCN(C(=O)OC(C)(C)C)CC3)c1` (stereo not shown) [Example 241, tert-butyl 2-(4-methoxy-5-(1H-pyrazol-4-yl)pyrimidin-2-yl)-4-((3-methoxyphenyl)amino)-3-oxo-2,8-diazaspiro[4.5]decane-8-carboxylate] showed a pIC50 of 5.52 to 6.60. Still for that read-out and setting: in the case of `COc1cccc(NC2C(=O)N(c3ncc(-c4cn[nH]c4)c(OC)n3)CC23CCN(C(=O)c2cnn4ccccc24)CC3)c1` (stereo not shown) [Example 243, 2-(4-methoxy-5-(1H-pyrazol-4-yl)pyrimidin-2-yl)-4-((3-methoxyphenyl)amino)-8-(pyrazolo[1,5-a]pyridine-3-carbonyl)-2,8-diazaspiro[4.5]decan-3-one] it was 5.52 to 6.60. Same read-out and setting: under `COc1cccc(NC2C(=O)N(c3ccc(-c4cn[nH]c4)cc3)CC23CN(C(C)=O)C3)c1` (stereo not shown) [Example 244, 6-(4-(1H-pyrazol-4-yl)phenyl)-2-acetyl-8-((3-methoxy-phenyl)amino)-2,6-diazaspiro [3.4]octan-7-one] stands 5.52 to 6.60; under `COc1cccc(NC2C(=O)N(c3ccc(-c4cn[nH]c4)cc3)CC23CN(C(=O)C2COC2)C3)c1` (stereo not shown) [Example 245, 6-(4-(1H-pyrazol-4-yl)phenyl)-8-((3-methoxy-phenyl)amino)-2-(oxetane-3-carbonyl)-2,6-diazaspiro [3.4]octan-7-one], 5.52 to 6.60. The compound `COc1cccc(NC2C(=O)N(c3ccc(-c4cn[nH]c4)cc3)CC23CN(C(=O)C(C)(C)O)C3)c1` (stereo not shown) [Example 246, 6-(4-(1H-pyrazol-4-yl)phenyl)-2-(2-hydroxy-2-methylpro-panoyl)-8-((3-methoxy-phenyl)amino)-2,6-diazaspiro [3.4]octan-7-one] gave a pIC50 of 5.52 to 6.60. On the same count and under the same terms, under `COc1cccc(NC2C(=O)N(c3ccc(-c4cn[nH]c4)cc3)CC23CN(CC(F)F)C3)c1` (stereo not shown) [Example 247, 6-(4-(1H-pyrazol-4-yl)phenyl)-2-(2,2-difluoroethyl)-8-((3-methoxy-phenyl)amino)-2,6-diazaspiro [3.4]octan-7-one] stands 5.52 to 6.60; under `COC(=O)N1CC2(C1)CN(c1ccc(-c3cn[nH]c3)cc1)C(=O)C2Nc1cccc(OC)c1` (stereo not shown) [Example 248, methyl 6-(4-(1H-pyrazol-4-yl)phenyl)-8-((3-methoxy-phenyl)amino)-7-oxo-2,6-diazaspiro [3.4]octane-2-carboxylate], 5.52 to 6.60. Same read-out and setting: in the case of `COc1cccc(NC2C(=O)N(c3ccc(-c4cn[nH]c4)cc3)CC23CCN(C(C)=O)CC3)c1` (stereo not shown) [Example 249, -(4-(1H-pyrazol-4-yl)phenyl)-8-acetyl-4-((3-methoxy-phenyl)amino)-2,8-diazaspiro [4.5]decan-3-one] it was 5.52 to 6.60; in that of `COc1cccc(NC2C(=O)N(c3ccc(-c4cn[nH]c4)cc3)CC23CCN(C(=O)CO)CC3)c1` (stereo not shown) [Example 250, 2-(4-(1H-pyrazol-4-yl)phenyl)-8-(2-hydroxy-acetyl)-4-((3-methoxy-phenyl)amino)-2,8-diazaspiro [4.5]decan-3-one], 5.52 to 6.60. The same measure, in the same setting: under `COC(=O)N1CCC2(CC1)CN(c1ccc(-c3cn[nH]c3)cc1)C(=O)C2Nc1cccc(OC)c1` (stereo not shown) [Example 251, methyl 2-(4-(1H-pyrazol-4-yl)phenyl)-4-((3-methoxy-phenyl)amino)-3-oxo-2,8-diazaspiro [4.5]decane-8-carboxylate] stands 5.52 to 6.60; under `COc1cccc(NC2C(=O)N(c3ccc(-c4cn[nH]c4)cc3)CC23CCN(CCO)CC3)c1` (stereo not shown) [Example 252, 2-(4-(1H-pyrazol-4-yl)phenyl)-8-(2-hydroxy-ethyl)-4-((3-methoxy-phenyl)amino)-2,8-diazaspiro [4.5]decan-3-one], 5.52 to 6.60.

`COc1cccc(NC2C(=O)N(c3ccc(-c4cn[nH]c4)cc3)CC23CCN(CC(C)(C)O)CC3)c1` (stereo not shown) [Example 253, 2-(4-(1H-pyrazol-4-yl)phenyl)-8-(2-hydroxy-2-methylpropyl)-4-((3-methoxy-phenyl)amino)-2,8-diazaspiro [4.5]decan-3-one] gave a pIC50 of 5.52 to 6.60. Still for that read-out and setting: under `COc1cccc(NC2C(=O)N(c3ccc(-c4cn[nH]c4)cn3)CC23CCN(C(=O)CC(C)c2ccccc2)CC3)c1` (stereo not shown) [Example 254, 2-(5-(1H-pyrazol-4-yl)pyridin-2-yl)-4-((3-methoxy-phenyl)amino)-8-(3-phenyl-butanoyl)-2,8-diazaspiro [4.5]decan-3-one] stands 5.52 to 6.60; under `COc1ccc(CCC(=O)N2CCC3(CC2)CN(c2ccc(-c4cn[nH]c4)cn2)C(=O)C3Nc2cccc(OC)c2)cc1` (stereo not shown) [Example 255, -(5-(1H-pyrazol-4-yl)pyridin-2-yl)-4-((3-methoxy-phenyl)amino)-8-(3-(4-methoxy-phenyl)propanoyl)-2,8-diazaspiro [4.5]decan-3-one], 5.52 to 6.60; under `COc1cccc(NC2C(=O)N(c3ccc(-c4cn[nH]c4)cn3)CC23CCN(C(=O)CCn2cc(C)c4ccccc42)CC3)c1` (stereo not shown) [Example 256, 2-(5-(1H-pyrazol-4-yl)pyridin-2-yl)-4-((3-methoxy-phenyl)amino)-8-(3-(3-methyl-1H-indol-1-yl)propanoyl)-2,8-diazaspiro [4.5]decan-3-one], 6.60 to 7.52.

On to `COc1cccc(NC2C(=O)N(c3ccc(-c4cn[nH]c4)cn3)CC23CCN(C(=O)Cc2csc(C)n2)CC3)c1` (stereo not shown) [Example 257, 2-(5-(1H-pyrazol-4-yl)pyridin-2-yl)-4-((3-methoxy-phenyl)amino)-8-(2-(2-methyl-thiazol-4-yl)acetyl)-2,8-diazaspiro [4.5]decan-3-one], for which the pIC50 was 5.52 to 6.60. As for `COc1cccc(NC2C(=O)N(c3ccc(-c4cn[nH]c4)cn3)CC23CCN(C(=O)CCc2nnc(-c4ccccc4)o2)CC3)c1` (stereo not shown) [Example 258, 2-(5-(1H-pyrazol-4-yl)pyridin-2-yl)-4-((3-methoxy-phenyl)amino)-8-(3-(5-phenyl-1,3,4-oxadiazol-2-yl)pro-panoyl)-2,8-diazaspiro [4.5]decan-3-one], the pIC50 was 6.60 to 7.52. Still for that read-out and setting: in the case of `COc1cccc(NC2C(=O)N(c3ccc(-c4cn[nH]c4)cn3)CC23CCN(C(=O)CCN2CCCC2=O)CC3)c1` (stereo not shown) [Example 259, 2-(5-(1H-pyrazol-4-yl)pyridin-2-yl)-4-((3-methoxy-phenyl)amino)-8-(3-(2-oxo-pyrrolidin-1-yl)pro-panoyl)-2,8-diazaspiro [4.5]decan-3-one] it was 5.52 to 6.60.

Another experiment relates to rat stroke model.
Experiment: not given
The note with it: in vivo; cited from earlier work.
On to `O=S(=O)(c1cccc2cnccc12)N1CCCNCC1` [fasudil], for which the “infarct size and neurologic deficit” value was “reduce both the infarct size and neurologic deficit”.

A further experiment concerns IL-1 beta-induced coronary stenosis.
Experiment: not given
The note with it: long term treatment; cited from earlier work.
Turning to `O=S(=O)(c1cccc2cnccc12)N1CCCNCC1` [fasudil], the coronary constrictive remodeling result is reported as “promote a regression of coronary constrictive remodeling” and the coronary stenosis entry was “progressively reduce coronary stenosis”.

For another experiment, the system named is spontaneously hypertensive rat, renal hypertensive rat and deoxycortisone acetate salt hypertensive rat models.
Experiment: not given
The note with it: control rats; cited from earlier work.
In the case of `C[C@@H](N)[C@H]1CC[C@H](C(=O)Nc2ccncc2)CC1` [Example Y-27632, Y-27632], the “effect on blood pressure” value is “only a minor effect on blood pressure”.

The experiment is the same for the next values; noted with them: three rat models of hypertension; cited from earlier work.
As for `C[C@@H](N)[C@H]1CC[C@H](C(=O)Nc2ccncc2)CC1` [Example Y-27632, Y-27632], the “effect on blood pressure” value is listed as “significantly decrease blood pressure”.

The test system of another experiment is neointimal formation.
Experiment: not given
The note with it: rats; cited from earlier work.
In the case of `C[C@@H](N)[C@H]1CC[C@H](C(=O)Nc2ccncc2)CC1` [Example Y-27632, Y-27632], the neointimal formation entry is listed as “inhibited neointimal formation”.

A further experiment has as its system congestive heart failure in Dahl salt-sensitive rats.
Experiment: not given
The note with it: rat, in vivo; cited from earlier work.
For the compound `C[C@@H](N)[C@H]1CC[C@H](C(=O)Nc2ccncc2)CC1` [Example Y-27632, Y-27632], the “ventricular hypertrophy, fibrosis and function” value was “improve ventricular hypertrophy, fibrosis and function”.
